The values below come from patent US7351728B2, “Oxazolyl-aryloxyacetic acid derivatives and their use as PPAR agonists” (Eli Lilly and Company, priority 2003, dated 2008).

In this test the test system is HuapoAI transgenic mice. The experiment in a line: Evaluation of triglyceride and cholesterol level in HuapoAI transgenic mice. It counts as in vivo. The note with it: Mus musculus, 168 h, 30 mg/kg daily oral gavage 7 days; for change in vivo at 30 mg/kg: percent increase in FPLC HDLc area under the curve; for inhibition in vivo at 30 mg/kg: serum, male human apoAI transgenic mice, read-out: % Triglyceride Reduction. As to the method:
Five to six week old male mice, transgenic for human apoAI [C57Bl/6-tgn(apoa1)lrub, Jackson Laboratory, Bar Harbor, Me.] were housed five per cage (10″×20″×8″ with aspen chip bedding) with food (Purina 5001) and water available at all times. After an acclimation period of 2 weeks, animals were individually identified by ear notches, weighed, and assigned to groups based on body weight. Beginning the following morning, mice were dosed daily by oral gavage for 7 days using a 20 gauge, 1½″ curved disposable feeding needle (Popper & Sons). Treatments were test compounds (30 mg/kg), a positive control (fenofibrate, 100 mg/kg) or vehicle [1% carboxymethylcellulose (w/v)/0.25% Tween80 (w/v); 0.2 ml/mouse]. Prior to termination on day 7, mice were weighed and dosed. Three hours after dosing, animals were anesthetized by inhalation of isoflurane (2-4%; Abbott Laboratories, Chicago, Ill.) and blood obtained via cardiac puncture (0.7-1.0 ml). Whole blood was transferred to serum separator tubes (Vacutainer SST), chilled on ice, and permitted to clot. Serum was obtained after centrifugation at 4° C. and frozen until analysis for triglycerides, total cholesterol, compound levels, and serum lipoprotein profile by fast protein liquid chromatography (FPLC) coupled to an inline detection system. After sacrifice by cervical dislocation, the liver, heart and epididymal fat pads were excised and weighed.
The animals dosed with vehicle had average triglycerides values of 60-80 mg/dl, which were reduced by the positive control fenofibrate (33-58 mg/dl with a mean reduction of 37%). The animals dosed with vehicle had average total serum cholesterol values of 140-180 mg/dl, which were increased by fenofibrate (190-280 mg/dl, with a mean elevation of 41%). […] Fenofibrate increased the amount of HDLc (68-96 v-sec with a mean percent increase of 48%).
Glucose was measured colorimetrically using commercially purchased reagents (Sigma #315-500). According to the manufacturers, the procedures were modified from published work (McGowan, M. W., Artiss, J. D., Strandbergh, D. R. & Zak, B. Clin Chem, 20:470-5 (1974) and Keston, A. Specific colorimetric enzymatic analytical reagents for glucose. Abstract of papers 129th Meeting ACS, 31C (1956).); and depend on the release of a mole of hydrogen peroxide for each mole of analyte, coupled with a color reaction first described by Trinder (Trinder, P. Determination of glucose in blood using glucose oxidase with an alternative oxygen acceptor. Ann Clin Biochem, 6:24 (1969)). The absorbance of the dye produced is linearly related to the analyte in the sample. The assays were further modified in our laboratory for use in a 96 well format. Standards (Sigma #339-11, Sigma #16-11, and Sigma #CC0534 for glucose triglycerides and total cholesterol, respectively), quality control plasma (Sigma # A2034), and samples (2 or 5 μl/well) were measured in duplicate using 200 μl of reagent. An additional aliquot of sample, pipetted to a third well and diluted in 200 μl water, provided a blank for each specimen. Plates were incubated at room temperature (18, 15, and 10 minutes for glucose, triglycerides and total cholesterol, respectively) on a plate shaker (DPC Micormix 5) and absorbance read at 500 nm (glucose and total cholesterol) or 540 nm (triglycerides) on a plate reader (Wallac Victor 1420). Sample absorbances were compared to a standard curve (100-800, 10-500, and 100-400 mg/dl for glucose, triglycerides and total cholesterol, respectively). Values for the quality control sample were always within the expected range and the coefficient of variation for samples was below 10%. All samples from an experiment were assayed at the same time to minimize inter-assay variability.
Serum lipoproteins were separated and cholesterol quantitated with an in-line detection system. Sample was applied to a Superose® 6 HR 10/30 size exclusion column (Amersham Pharmacia Biotech) and eluted with phosphate buffered saline-EDTA at 0.5 ml/min. […]

In turn, `Cc1oc(-c2ccccc2)nc1CCOc1ccc(OC(C)(C)C(=O)O)c(CCc2ccccc2)c1` [Example 30J, 2-Methyl-2-{4-[2-(5-methyl-2-phenyloxazol-4-yl)ethoxy]-2-phenethylphenoxy}propionic acid] gave a change in vivo at 30 mg/kg of 77%.
On to `Cc1cc(OCCc2nc(-c3ccccc3)oc2C)ccc1OC(C)(C)C(=O)O` [Example 24, 2-Methyl-2-{2-methyl-4-[2-(5-methyl-2-phenyloxazol-4-yl)ethoxy]phenoxy}propionic acid], for which the change in vivo at 30 mg/kg was found to be 61% and the inhibition in vivo at 30 mg/kg is 75%.
On the same counts, the results for `Cc1oc(-c2ccccc2)nc1CCOc1ccc(OC(C)(C)C(=O)O)c2ccccc12` [Example 37, 2-Methyl-2-{4-[2-(5-methyl-2-phenyl-oxazol-4-yl)-ethoxy]-naphthalen-1-yloxy}-propionic acid] are 94% and 29.9%.
In the same order, the values of `CCCc1cc(OCCc2nc(-c3ccccc3)oc2C)ccc1OC(C)(C)C(=O)O` [Example 26A, 2-Methyl-2-{4-[2-(5-methyl-2-phenyloxazol-4-yl)ethoxy]-2-propylphenoxy}propionic acid] are 43% and 35.9%.
In the same order, the values of `Cc1oc(-c2ccccc2)nc1CCOc1ccc(OC(C)(C)C(=O)O)c(CC(C)C)c1` [Example 30C, 2-{2-Isobutyl-4-[2-(5-methyl-2-phenyloxazol-4-yl)ethoxy]phenoxy}-2-methylpropionic acid] are 31% and 6.2%.
Turning to `CCCCc1cc(OC(C)(C)C(=O)O)ccc1OCCc1nc(-c2ccccc2)oc1C` [Example 31F, 2-{3-Butyl-4-[2-(5-methyl-2-phenyloxazol-4-yl)ethoxy]phenoxy}-2-methylpropionic acid], the change in vivo at 30 mg/kg stood at 79% and the inhibition in vivo at 30 mg/kg came to 35.7%.
On the same counts, the results for `CCCc1cc(OCCc2nc(-c3ccccc3)oc2C)ccc1OCC(=O)O` [Example 26, {4-[2-(5-methyl-2-phenyl-oxazol-4-yl)ethoxy]-2-propylphenoxy}acetic acid] are 19% and 25.5%.
In the same order, the values of `Cc1oc(-c2ccccc2)nc1CCOc1ccc(OC(C)(C)C(=O)O)cc1` [Example 1, 2-Methyl-2-{4-[2-(5-methyl-2-phenyloxazol-4-yl)ethoxy]phenoxy}propionic acid] are 77% and 79.2%.
In the same order, the values of `Cc1oc(-c2ccccc2)nc1CCOc1ccc(OC(C)(C)C(=O)O)c2c1CCCC2` [Example 38, 2-Methyl-2-{4-[2-(5-methyl-2-phenyl-oxazol-4-yl)-ethoxy]-5,6,7,8-tetrahydro-naphthalen-1-yloxy}-propionic acid] are 86% and 39%.
In the case of `CCc1cc(OCCc2nc(-c3ccccc3)oc2C)ccc1OC(C)(C)C(=O)O` [Example 30A, 2-{2-Ethyl-4-[2-(5-methyl-2-phenyloxazol-4-yl)ethoxy]phenoxy}2-methylpropionic acid], the change in vivo at 30 mg/kg worked out at 93% and the inhibition in vivo at 30 mg/kg was 51.8%.
In the same order, the values of `CCc1cccc(-c2nc(CCOc3ccc(OC(C)(C)C(=O)O)cc3)c(C)o2)c1` [Example 12, 2-(4-{2-[2-(3-Ethylphenyl)-5-methyloxazol-4-yl]ethoxy}phenoxy)-2-methylpropionic acid] are 180% and 74.3%.
In the same order, the values of `CCc1ccc(-c2nc(CCOc3ccc(OC(C)(C)C(=O)O)cc3)c(C)o2)cc1` [Example 13, 2-(4-{2-[2-(4-Ethylphenyl)-5-methyloxazol-4-yl]ethoxy}phenoxy)-2-methylpropionic acid] are 133% and 44.8%.
For the molecule `Cc1oc(-c2cccc(Br)c2)nc1CCOc1ccc(OC(C)(C)C(=O)O)cc1` [Example 9A, 2-(4-{2-[2-(3-Bromophenyl)-5-methyloxazol-4-yl]ethoxy}phenoxy)-2-methylpropionic acid], the change in vivo at 30 mg/kg came out at 118% and the inhibition in vivo at 30 mg/kg amounted to 67.1%.
`Cc1oc(-c2ccc(OC3CCCCC3)cc2)nc1CCOc1ccc(OC(C)(C)C(=O)O)cc1` [Example 21, 2-(4-{2-[2-(4-Cyclohexyloxy-phenyl)-5-methyl-oxazol-4-yl]-ethoxy}-phenoxy)-2-methyl-propionic acid] came in with a change in vivo at 30 mg/kg of 9%.
On to `CCCc1cc(OC(C)(C)C(=O)O)ccc1OCCc1nc(-c2ccccc2)oc1C` [Example 27A, 2-Methyl-2-{4-[2-(5-methyl-2-phenyloxazol-4-yl)ethoxy]-3-propylphenoxy}propionic acid], for which the change in vivo at 30 mg/kg was found to be 52% and the inhibition in vivo at 30 mg/kg was 29.5%.
Regarding `Cc1oc(-c2cccc(CCc3ccccc3)c2)nc1CCOc1ccc(OC(C)(C)C(=O)O)cc1` [Example 12A, 2-Methyl-2-(4-{2-[5-methyl-2-(3-phenethylphenyl)oxazol-4-yl]ethoxy}phenoxy)-propionic acid], the change in vivo at 30 mg/kg amounted to 47%.
Same read-out and setting: for `Cc1oc(-c2ccccc2)nc1CCOc1ccc(OC(C)(C)C(=O)O)c(Cc2ccccc2)c1` [Example 32, 2-{2-Benzyl-4-[2-(5-methyl-2-phenyloxazol-4-yl)ethoxy]phenoxy}-2-methylpropionic acid] the value was 20%.
